Holding throughout (details): CHO cell membrane fraction; 2.5 nM 3H-PGE2; pH 6.0; room temperature, 1 hour; more polar stereoisomer
The target in one test is T1, mouse EP1 (Mus musculus, UniProt P35375).
T1 construct: expressed in transfected cells; host or cells: CHO cells (membrane fraction)
T1 sequence (P35375 1-405): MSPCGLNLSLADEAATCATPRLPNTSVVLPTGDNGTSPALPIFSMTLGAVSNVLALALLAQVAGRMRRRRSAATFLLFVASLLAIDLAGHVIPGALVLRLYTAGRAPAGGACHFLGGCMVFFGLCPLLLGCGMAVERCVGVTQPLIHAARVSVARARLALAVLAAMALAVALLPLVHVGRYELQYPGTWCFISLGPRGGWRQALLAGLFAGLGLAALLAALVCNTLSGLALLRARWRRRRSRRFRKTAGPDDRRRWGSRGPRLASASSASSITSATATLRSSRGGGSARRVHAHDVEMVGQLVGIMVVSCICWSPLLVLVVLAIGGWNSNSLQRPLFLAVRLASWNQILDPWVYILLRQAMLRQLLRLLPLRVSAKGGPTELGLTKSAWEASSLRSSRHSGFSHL
Kind of test: Binding assay using expression cell of prostanoids receptor subtype (competition of specific 3H-PGE2 binding), EP1. On the procedure:
(§1) (i) Binding Assay Using Expression Cell of Prostanoids Receptor Subtype
(§2) The preparation of membrane fraction was carried out according to the method of Sugimoto et. al., [J. Biol. Chem., 267, 6463-6466 (1992)], using expression CHO cell of the prostanoids receptor subtype (mouse EP1, EP2, EP3α, EP4).
(§3) The standard assay mixture containing membrane fraction (0.5 mg/ml) and [^3 H]-PGE2 ([…]) in a final volume of 200 μl was incubated at room temperature for 1 hour. The reaction was terminated by addition of ice-cooled buffer (3 ml). The mixture was filtered through a GF/B glass filter under reduced pressure. The radioactivity associated with the filter was measured by liquid scintillation counter.
(§4) Kd and Bmax values were determined from Scatchard plots [Ann. N. Y. Acad. Sci., 51, 660 (1949)]. Non-specific binding was calculated as the binding in the presence of an excess (2.5 μM) of unlabeled PGE2. In the experiment for competition of specific ^3 H-PGE2 binding by the compounds of the present invention, 2.5 nM of ^3 H-PGE2 and various concentrations of compounds of the present invention were added. The following buffer was used in all reactions.
(§5) Buffer: 10 mM potassium phosphate (pH 6.0), 1 mM EDTA, 10 mM MgCl2, 0.1 M NaCl.
(§6) All the values shown are those obtained using the more polar stereoisomer of the exemplified compounds. The dissociation constant; i.e. Ki (μM) of each compound was calculated by the following equation.

The next test addresses T2, mouse EP2 (Mus musculus, UniProt Q62053).
T2 construct: expressed in transfected cells; host or cells: CHO cells (membrane fraction)
Kind of test: Binding assay using expression cell of prostanoids receptor subtype (competition of specific 3H-PGE2 binding), EP2. On the procedure:
as §1, §2, §3, §4, §5, §6

The target in another test is T3, mouse EP3α (Mus musculus, UniProt P30557).
T3 construct: expressed in transfected cells; host or cells: CHO cells (membrane fraction)
T3 sequence (P30557 1-365): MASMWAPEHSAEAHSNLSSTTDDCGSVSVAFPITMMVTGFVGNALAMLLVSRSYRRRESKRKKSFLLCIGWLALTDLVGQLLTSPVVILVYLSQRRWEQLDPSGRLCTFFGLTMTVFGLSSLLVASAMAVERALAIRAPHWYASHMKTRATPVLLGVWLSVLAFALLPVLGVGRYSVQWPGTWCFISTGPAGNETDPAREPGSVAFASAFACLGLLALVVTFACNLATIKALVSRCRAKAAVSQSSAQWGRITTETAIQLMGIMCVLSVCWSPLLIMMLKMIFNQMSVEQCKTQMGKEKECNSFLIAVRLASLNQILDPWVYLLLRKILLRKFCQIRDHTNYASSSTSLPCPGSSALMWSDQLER
The test can be described thus: Binding assay using expression cell of prostanoids receptor subtype (competition of specific 3H-PGE2 binding), EP3α. On the procedure: as §1, §2, §3, §4, §5, §6

In the next test the target is T4, mouse EP4 (Mus musculus, UniProt P32240).
T4 construct: expressed in transfected cells; host or cells: CHO cells (membrane fraction)
T4 sequence (P32240 whole entry): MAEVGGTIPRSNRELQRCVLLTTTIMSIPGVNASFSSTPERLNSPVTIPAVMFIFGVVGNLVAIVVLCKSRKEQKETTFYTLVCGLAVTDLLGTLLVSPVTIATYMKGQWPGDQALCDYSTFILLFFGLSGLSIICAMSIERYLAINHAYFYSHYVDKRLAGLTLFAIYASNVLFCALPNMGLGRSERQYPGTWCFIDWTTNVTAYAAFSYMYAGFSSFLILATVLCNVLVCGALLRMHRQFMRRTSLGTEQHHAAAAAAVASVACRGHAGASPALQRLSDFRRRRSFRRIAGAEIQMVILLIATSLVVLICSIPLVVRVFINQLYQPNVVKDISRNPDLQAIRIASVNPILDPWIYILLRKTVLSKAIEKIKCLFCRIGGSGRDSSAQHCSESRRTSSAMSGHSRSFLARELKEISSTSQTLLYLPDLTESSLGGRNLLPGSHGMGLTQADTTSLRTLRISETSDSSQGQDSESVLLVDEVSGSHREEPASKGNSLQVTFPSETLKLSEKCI
The test can be described thus: Binding assay using expression cell of prostanoids receptor subtype (competition of specific 3H-PGE2 binding), EP4. Here is the method: as §1, §2, §3, §4, §5, §6

The structures appear in SMILES notation.

T2 sequence (Q62053 whole entry): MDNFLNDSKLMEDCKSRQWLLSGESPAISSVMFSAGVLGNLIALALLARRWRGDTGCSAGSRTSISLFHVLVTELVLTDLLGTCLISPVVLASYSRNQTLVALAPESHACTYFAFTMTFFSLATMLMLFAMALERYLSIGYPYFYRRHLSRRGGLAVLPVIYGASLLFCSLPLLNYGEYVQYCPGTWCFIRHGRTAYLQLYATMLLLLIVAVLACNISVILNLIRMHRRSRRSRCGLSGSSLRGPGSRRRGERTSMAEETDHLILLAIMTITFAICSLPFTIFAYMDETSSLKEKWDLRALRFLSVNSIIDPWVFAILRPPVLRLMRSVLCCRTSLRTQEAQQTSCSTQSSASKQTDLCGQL

As usually defined, the Ki is a dissociation constant, usually derived from enzyme kinetics or from competition with a known ligand. A higher Ki goes with lower affinity. `C=CCC1(C(O)C/C=C/[C@H]2[C@H](O)CC(=O)[C@@H]2CCc2ccc(C(=O)O)cc2)CCC1` (single isomer, unassigned) [Example 2(a), (11α,13E)-9-Oxo-11,16-dihydroxy-17,17-propano-1,6-(p-phenylene)-2,3,4,5-tetranorprost-13,19-dienoic Acid]: the Ki at mouse EP1 was greater than 10000 nM; at mouse EP2 it was 9.7 nM; at mouse EP3α it was greater than 10000 nM; on mouse EP4, greater than 10000 nM.

For `O=C(O)c1ccc(CC[C@H]2C(=O)C[C@@H](O)[C@@H]2/C=C/CC(O)C2(CC3CC3)CCC2)cc1` (single isomer, unassigned) [Example 2(b), (11α,13E)-9-Oxo-11,16-dihydroxy-17,17-propano-19,20-methano-1,6-(p-phenylene)-2,3,4,5-tetranorprost-13-enoic Acid], the inhibition constant Ki at mouse EP1 was greater than 10000 nM; at mouse EP2, 6.1 nM; on mouse EP3α it was greater than 10000 nM; on mouse EP4, greater than 10000 nM.

Consider `C=CCC1(C(O)C/C=C/[C@@H]2[C@@H](CCc3ccc(C(=O)O)cc3)[C@H](Cl)C[C@H]2O)CCC1` (stereo partly drawn) [9(c), (9β,11α,13E) -9-Chloro-11,16-dihydroxy-17,17-propano-1,6-(p-phenylene)-2,3,4,5-tetranorprost-13,19-dienoic acid], for which the inhibition constant (Ki) on mouse EP1 is greater than 10000 nM; at mouse EP2, 5.1 nM; at mouse EP3α, greater than 10000 nM; at mouse EP4 it was greater than 10000 nM.

As for `C=CCC1(C(O)C/C=C/[C@@H]2C(SCc3ccc(C(=O)O)cc3)C(=O)C[C@H]2O)CCC1` (stereo partly drawn) [Example 5(b), (11α,13E)-9-Oxo-11,16-dihydroxy-17,17-propano-7-thia-1,6-(p-phenylene)-2,3,4,5-tetranorprost-13,19-dienoic Acid], the Ki at mouse EP1 is greater than 10000 nM; at mouse EP2, 19 nM; on mouse EP3α, greater than 10000 nM; on mouse EP4 it was 1500 nM.

Take `O=C(O)c1ccc(CSC2C(=O)C[C@@H](O)[C@@H]2/C=C/CC(O)C2(CC3CC3)CCC2)cc1` (stereo partly drawn) [Example 5(d), (11α,13E) -9-Oxo-11,16-dihydroxy-17,17-propano-19,20-methano-7-thia-1,6-(p-phenylene)-2,3,4,5-tetranorprost-13-enoic Acid]: the Ki on mouse EP1 is greater than 10000 nM; on mouse EP2, 2 nM; on mouse EP3α it was greater than 10000 nM; on mouse EP4, 310 nM.
